pIC50: −log10 of the molar value. In brackets after ≈: the same amount, converted by molar mass.
Experiments:
[1] = system: Meloidogyne incognita eggs; test: M. incognita egg immersion assay (hatch and mobility of hatched J2); assay type: in vivo; conditions: for effect on mobility of J2 hatched from eggs immersed in solutions (in words): in vivo
Experimental: (§1) Two types of assays were used to investigate activity against M. incognita: i) eggs were immersed in solutions of the test compounds, and ii) second-stage juveniles (J2) previously hatched from eggs were immersed in the test solutions. These assays were conducted with procedures similar to those in Meyer, et al. (J. Nematol. 2006, 38, 333). M. incognita race 1 (originally isolated in 2013 from a field in Maryland) was grown in the greenhouse on pepper (Capsicum annuum L.) cultivar PA-136. Egg masses were hand-picked from plant roots, rinsed three times with sterile distilled H2O, and agitated in 0.6% NaClO for 3.5 minutes to separate and surface-sterilize eggs. The eggs were rinsed in sterile distilled H2O and stored overnight at 4° C. before use in egg immersion assays. To collect J2 for direct immersion into the test compounds, sterilized eggs were placed into a hatching chamber made with a Spectra/Mesh Nylon Filter (openings 25 μm in diameter; Spectrum Laboratories Inc., Rancho Dominguez, Calif., USA) in an autoclaved dish. J2 that passed through the filter within 3 days were used immediately for assays.
(§2) The assays were conducted in 96-well polystyrene plates. For the assays with immersed eggs, each well received approximately 50 eggs in 35 μl of sterile deionized water (SDW). For assays with previously hatched J2, a suspension of approximately 50 J2 in 35 μl of SDW was placed into each well. Each well then received 165 μl of treatment or control. The solvent used to dissolve the test chemicals was a 1:1:1 mixture referred to herein as CTD: equal parts Cremophor® EL Castor Oil (BASF Corporation, Vandalia, Ill., USA), Tween 80® (Sigma-Aldrich, St. Louis, Mo., USA), and DMSO (Sigma-Aldrich). A high and low rate of each compound was tested. After addition to the nematode suspensions in the wells, the low and high rates were 83.3 and 166.7 μg/ml of each test compound, respectively, dissolved in 0.5% and 1.0% of each of the three combined solvents. Controls were CTD equivalent to the low and high rates, and SDW. Because of the large number of treatments, the test compounds were divided into two groups for the egg immersion assays. The compounds tested in the egg immersion Assay 1 were 3, 6a, 6e, 6f, 6g, 6n, 7a, 7c, 7e, 7f, 7n, 11, 12, 16, and 17. The compounds tested in the egg immersion Assay 2 were 6b, 6h, 6i, 6j, 6k, 6l , 7b, 7g, 7h, 7i, 7j, 7k, 7l, and 7m (data not shown). Test compounds used for assays with previously hatched J2 were selected based on results with the egg assays. The five compounds tested were 6b, 6f, 6g, 6i, and 7k, high and low rates.
(§3) Each polystyrene culture plate was covered with a plastic adhesive sheet (Excel Scientific, Inc., Victorville, Calif., USA) and incubated at 25° C. Ten wells (water controls) or five wells (all other treatments) were used per treatment in each assay. In egg immersion assays, total numbers of hatched J2, and numbers of mobile and immobile J2, were counted after 2 and 7 days incubation in the test compounds. In the first assay with previously hatched J2, the numbers of mobile and immobile J2 were counted after 1 and 2 days incubation, the treatments removed and replaced with a SDW rinse, and 2 days later the mobile vs. immobile J2 counted again. In assays with 6g and 7k, high rates and counts were made on Days 1, 2, 4, and 6, without a SDW rinse.
Data from the M. incognita assays were analyzed with the statistical package JMP 11.2.0 (SAS Institute, Cary, N.C., USA). Differences among numbers of hatched J2 in each treatment, and among percentage of mobile J2 per treatment (number mobile J2/total J2×100), were determined by the ANOVA, and means were compared using Tukey Kramer's adjustment for multiple comparisons (P<0.05). For percent mobile J2 on Day 2 in egg immersion Assays 1 and 2, and Day 4 with the five compounds in the J2 immersion assay, data were log10 (x+1)-transformed before analysis. Data presented are nontransformed means.

[2] = system: Meloidogyne incognita second-stage juveniles (J2); test: M. incognita assay with previously hatched J2 immersed in test solutions; conditions: in vivo
Experimental: as §1
as §2, with “The five compounds tested were 6b, 6f, 6g, 6i, and 7k, high and low rates.” left out
as §3, with “Ten wells (water controls) or five wells (all other treatments) were used per treatment in each assay.” left out, “In assays with 6g and 7k, high rates and counts were made on Days 1, 2, 4, and 6, without a SDW rinse.” left out
Data from the M. incognita assays were analyzed with the statistical package JMP 11.2.0 (SAS Institute, Cary, N.C., USA). Differences among numbers of hatched J2 in each treatment, and among percentage of mobile J2 per treatment (number mobile J2/total J2×100), were determined by the ANOVA, and means were compared using Tukey Kramer's adjustment for multiple comparisons (P<0.05). […]

[3] = system: Mycobacterium intracellulare ATCC 23068; test: Antimicrobial microplate assay (modified CLSI, AlamarBlue); assay type: cell-based; conditions: ATCC23068, My. intracellulare
Experimental: (§4) All organisms were obtained from the American Type Culture Collection (ATCC; Manassas, Va., USA) and included the fungi Cryptococcus neoformans ATCC 90113 and the bacteria Staphylococcus aureus ATCC 29213, methicillin-resistant S. aureus ATCC 33591 (MRSA), and Mycobacterium intracellulare ATCC 23068. All organisms were tested using modified versions of the CLSI (formerly NCCLS) methods. For all organisms excluding My. intracellulare, optical density was used to monitor growth. Medium supplemented with 5% AlamarBlue® (BioSource International, Camarillo, Calif., USA) was utilized for growth detection of My. intracellulare. Samples (dissolved in DMSO) were serially diluted in 20% DMSO/saline and transferred (10 μl) in duplicate to 96-well flat-bottom microplates. Inocula were prepared by correcting the OD630 of microbe suspensions in Sabouraud Dextrose for Cr. neoformans, cation-adjusted Mueller-Hinton (Difco) at pH 7.3 for Staphylococcus spp., and 5% AlamarBlue® (BioSource International) in Middlebrook 7H9 broth with OADC enrichment, pH=7.0 for My. intracellulare, to afford an assay volume of 200 μl and final target inocula of: Cr. neoformans.: b 1.5×10^3, My. intracellulare: 2.0×10^6, and Staphylococcus spp.,: 5.0×10^5 CFU/ml. Final sample test concentrations were 1/100th the DMSO stock concentration. […] All organisms were read at either 530 nm using the Biotek Powerwave XS plate reader (Bio-Tek Instruments, VT) or 544ex1590em (My. intracellulare) using the Polarstar Galaxy Plate Reader (BMG LabTechnologies, Germany) before and after incubation: Staphylococcus spp. at 35° C. for 16-20 h, Cr. neoformans at 35° C. for 70-74 h, and My. intracellulare at 37° C. and 10% CO2 for 70-74 h. IC50 Values (concentrations that afford 50% inhibition relative to controls) werecalculated using XLfit 4.2 software (IDBS, Alameda, Calif.) using fit model 201.

[4] = system: Cryptococcus neoformans ATCC 90113; test: Antimicrobial microplate assay (modified CLSI); assay type: cell-based; conditions: Cryptococcus neoformans, ATCC90113; Cr. neoformans
Experimental: All organisms were obtained from the American Type Culture Collection (ATCC; Manassas, Va., USA) and included the fungi Cryptococcus neoformans ATCC 90113 and the bacteria Staphylococcus aureus ATCC 29213, methicillin-resistant S. aureus ATCC 33591 (MRSA), and Mycobacterium intracellulare ATCC 23068. All organisms were tested using modified versions of the CLSI (formerly NCCLS) methods. For all organisms excluding My. intracellulare, optical density was used to monitor growth. Medium supplemented with 5% AlamarBlue® (BioSource International, Camarillo, Calif., USA) was utilized for growth detection of My. intracellulare. Samples (dissolved in DMSO) were serially diluted in 20% DMSO/saline and transferred (10 μl) in duplicate to 96-well flat-bottom microplates. Inocula were prepared by correcting the OD630 of microbe suspensions in Sabouraud Dextrose for Cr. neoformans, cation-adjusted Mueller-Hinton (Difco) at pH 7.3 for Staphylococcus spp., and 5% AlamarBlue® (BioSource International) in Middlebrook 7H9 broth with OADC enrichment, pH=7.0 for My. intracellulare, to afford an assay volume of 200 μl and final target inocula of: Cr. neoformans.: b 1.5×10^3, My. intracellulare: 2.0×10^6, and Staphylococcus spp.,: 5.0×10^5 CFU/ml. Final sample test concentrations were 1/100th the DMSO stock concentration. Drug controls (Ciprofloxacin (ICN Biomedicals, Ohio, USA) for bacteria and Amphotericin B (ICN Biomedicals) for fungi) were included in each assay. All organisms were read at either 530 nm using the Biotek Powerwave XS plate reader (Bio-Tek Instruments, VT) or 544ex1590em (My. intracellulare) using the Polarstar Galaxy Plate Reader (BMG LabTechnologies, Germany) before and after incubation: Staphylococcus spp. at 35° C. for 16-20 h, Cr. neoformans at 35° C. for 70-74 h, and My. intracellulare at 37° C. and 10% CO2 for 70-74 h. IC50 Values (concentrations that afford 50% inhibition relative to controls) werecalculated using XLfit 4.2 software (IDBS, Alameda, Calif.) using fit model 201.

[5] = system: methicillin-resistant S. aureus ATCC 33591 (MRSA); test: Antimicrobial microplate assay (modified CLSI); assay type: cell-based; conditions: Staphylococcus aureus
Experimental: as §4

[6] = system: Staphylococcus aureus ATCC 29213; test: Antimicrobial microplate assay (modified CLSI); assay type: cell-based; conditions: ATCC29213, S. aureus
Experimental: as §4

[7] = system: C. fragariae; test: Direct bioautography, antifungal; assay type: cell-based, Colletotrichum fragariae; conditions: Colletotrichum fragariae; 2 mM; 4 μl spotted (2 μl of the positive controls); average of 2 assays; read-out: zones of inhibition
Experimental: (§5) The analogs were tested for activity against Colletotrichum acutatum SIMMONDS, C. fragariae BROOKS, and C. gloeosporioides (PENZ) PENZ & SACC. in Penz., using a direct bioautography method as previously described by Tabanca et al. (Nat. Prod. Commun. 2008, 3, 1073) and Wang, et al. (J. Agric. Food Chem. 2013, 61, 4551). Technical grade commercial fungicide standards benomyl, cyprodinil, azoxystrobin, and captan were used at 0.9-1.61 μg/μl concentrations in 95% EtOH. After sample application, each TLC plate was subsequently sprayed with a spore suspension (3.0×10^5 spores/ml) of the fungus of interest and incubated in a moisture chamber for 4 days at 26° C. with a 12 hour photoperiod. Clear zones of fungal growth inhibition on the TLC plate indicated the presence of antifungal constituents in each extract or pure compound. The test compounds were prepared at 2 mM soln. in 95% EtOH, and 4 μl were spotted on the plates (2 μl of the positive controls).

[8] = system: C. gloeosporioides; test: Direct bioautography, antifungal; assay type: cell-based, Colletotrichum gloeosporioides; conditions: Colletotrichum gloeosporioides; 2 mM; 4 μl spotted (2 μl of the positive controls); average of 2 assays; read-out: zones of inhibition
Experimental: as §5

[9] = system: Colletotrichum acutatum; test: Direct bioautography, antifungal; assay type: cell-based; conditions: Colletotrichum acutatum; 2 mM; 4 μl spotted (2 μl of the positive controls); average of 2 assays; read-out: zones of inhibition
Experimental: as §5

[10] = 7 days, high rate (166.7 μg/ml)

For `COc1cc(/C=C/c2ccc(Cl)cc2)cc(OC)c1C` [Compound 6f, (E)-1,3-dimethoxy-5-(4-chlorostyryl)-2-methylbenzene], the “Percent mobile J2, assay 1” value [1, 10] was 71.3%, the “Percent mobile J2, assay 1” value ([1]; 7 days, low rate (83.3 μg/ml)) was 93.9% and the “effect on mobility of J2 hatched from eggs immersed in solutions (in words)” value (“effect on mobility of J2 hatched” below) [1] was “some suppressive effect on mobility”. The “effect on mobility of J2 previously hatched in water and immersed directly (in words)” value [2] was “only 6g and 7k had an effect on J2 mobility”.
For `COc1cc(/C=C/c2ccc(Br)cc2)cc(OC)c1C` [Compound 6g, (E)-1,3-dimethoxy-5-(4-bromostyryl)-2-methylbenzene], the “Percent mobile J2, assay 1” value [1, 10] was 74.6%, the “Percent mobile J2, assay 1” value ([1]; 7 days, low rate (83.3 μg/ml)) was 89.2% and the “effect on mobility of J2 hatched” value [1] was “some suppressive effect on mobility”. For the same compound, the “effect on mobility of J2 previously hatched in water and immersed directly (in words)” value [2] was “had an effect on J2 mobility”.
For `COc1cc(/C=C/c2ccc(Cl)c(Cl)c2)cc(OC)c1C` [Compound 6i, (E)-1,3-dimethoxy-5-(3,4-dichlorostyryl)-2-methylbenzene], the “Percent mobile J2, assay 2” value ([1]; 2 days, high rate (166.7 μg/ml)) was 100.0%, the “Percent mobile J2, assay 2” value ([1]; 2 days, low rate (83.3 μg/ml)) was 71.0% and the “Percent mobile J2, assay 2” value [1, 10] was 93.2%. For the same compound, the “Percent mobile J2, assay 2” value ([1]; 7 days, low rate (83.3 μg/ml)) was 87.7%, the “effect on mobility of J2 hatched” value [1] was “some suppressive effect on mobility” and the “effect on mobility of J2 previously hatched in water and immersed directly (in words)” value [2] was “only 6g and 7k had an effect on J2 mobility”.
Compound `COc1cc(/C=C/c2ccc(O)cc2)cc(OC)c1C` [Compound 16, (E)-4-(3,5-dimethoxy-4-methylstyryl)phenol] has a pIC50 [3] of 4.47, an MIC [3] of 74 µM (≈ 20 µg/mL) and a pIC50 [4] of 5.28. The MIC [4] was 9.25 µM (≈ 2.5 µg/mL), the pIC50 [5] was 4.36 and the MIC [5] was 74 µM (≈ 20 µg/mL). It also gave a pIC50 [6] of 4.69 and an MIC [6] of 74 µM (≈ 20 µg/mL).
`Cc1cc(C2CC2)nc(Nc2ccccc2)n1` [Cyprodinil, cyprodinil] was tested, and the zone of inhibition at 2000 µM [7] was 21.5 mm, the zone of inhibition at 2000 µM [8] was 21.5 mm and the zone of inhibition at 2000 µM [9] was 18 mm.
